Data on 35 compounds can be found in patent US11578084B2, “Condensed ring compounds having dopamine D3 receptor antagonistic effect” (Shionogi & Co., Ltd., priority 2018, dated 2023).

Each structure is given as a SMILES string.

The target of data set [1] is human recombinant dopamine D2 receptor (Homo sapiens (Human), UniProt P14416). The data set is described as follows: Test of binding inhibition for dopamine D2 receptor ([3H]-Methylspiperone SPA). The conditions noted are these: Jump-In HEK cell membranes, 1.2 nM [3H]-Methylspiperone, 120 min at 25° C.; read-out: hD2_Ki. In outline: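 Scintillation proximity competition binding of [3H]-Methylspiperone to Jump-In HEK membranes expressing human D2 (2 μg protein/well) on WGA SPA beads (0.2 mg/well), 120 min at 25° C.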
Chain of human recombinant dopamine D2 receptor (P14416 whole entry): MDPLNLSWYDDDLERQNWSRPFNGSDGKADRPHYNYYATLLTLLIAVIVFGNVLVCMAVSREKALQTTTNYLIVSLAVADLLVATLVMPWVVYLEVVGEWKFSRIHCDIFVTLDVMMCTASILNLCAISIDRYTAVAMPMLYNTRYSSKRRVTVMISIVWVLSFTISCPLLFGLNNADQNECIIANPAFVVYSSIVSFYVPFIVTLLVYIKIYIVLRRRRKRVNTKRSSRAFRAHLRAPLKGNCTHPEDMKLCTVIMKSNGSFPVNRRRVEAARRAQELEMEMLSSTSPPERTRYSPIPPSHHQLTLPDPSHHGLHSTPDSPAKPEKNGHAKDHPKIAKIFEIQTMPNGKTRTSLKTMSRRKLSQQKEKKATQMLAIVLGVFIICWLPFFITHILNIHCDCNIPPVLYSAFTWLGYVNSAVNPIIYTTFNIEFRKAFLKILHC

Data set [2] concerns the target human recombinant dopamine D3 receptor (Homo sapiens (Human), UniProt P35462). The data set is described as follows: Test of binding inhibition for dopamine D3 receptor ([3H]-Methylspiperone SPA). To be noted: Jump-In HEK cell membranes, 2 nM [3H]-Methylspiperone, 120 min at 25° C.; read-out: hD3_Ki. In outline:
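SPA radioligand binding on Jump-In HEK membranes expressing human D3 receptor (4 µg/well) with 2 nM [3H]-methylspiperone (final), incubated 120 min at 25 °C. Non-specific binding defined with 10 µM butaclamol. Percent inhibition computed against total and non-specific binding; Ki from dose-response curves.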

Another data set addresses hERG channel (IKr) (Homo sapiens (Human), UniProt Q12809). The data set is described as follows: hERG test (whole cell patch clamp, IKr). The format is cell-based. To be noted: human, CHO cells expressing hERG channel, pH 7.4, 3 μM, tail peak current. The text has this: Test Example 10: hERG Test
For the purpose of assessing risk of an electrocardiogram QT interval prolongation of the compound of the present invention, effects of the compound of the present invention on delayed rectifier K+ current (IKr), which plays an important role in the ventricular repolarization process, was studied using CHO cells expressing human ether-a-go-go related gene (hERG) channel.
After a cell was retained at a membrane potential of −80 mV by whole cell patch clamp method using an automated patch clamp system (QPatch; Sophion Bioscience A/S) and gave a leak potential of −50 mV, IKr induced by depolarization pulse stimulation at +20 mV for 2 seconds and, further, repolarization pulse stimulation at −50 mV for 2 seconds, was recorded. After the generated current was stabilized, extracellular solution (NaCl: 145 mmol/L, KCl: 4 mmol/L, CaCl2): 2 mmol/L, MgCl2: 1 mmol/L, glucose: 10 mmol/L, HEPES (4-(2-hydroxyethyl)-1-piperazineethanesulfonic acid): 10 mmol/L, pH=7.4), in which the compound of the present invention had been dissolved at an objective concentration in the extracellular solution, was applied to the cell at room temperature for 7 minutes or more. From the recording IKr, an absolute value of the tail peak current was measured based on the current value at the resting membrane potential using analysis software (QPatch Assay software; Sophion Bioscience A/S). Further, the % inhibition of tail peak current for the compound of the present invention relative to the tail peak current after application of the solution (0.1% dimethyl sulfoxide solution) was calculated to assess influence of the compound of the present invention on IKr.
A general note: hERG is a cardiac potassium channel; its block is linked to QT prolongation.

In general, inhibition refers to the share of the control response that was lost under treatment. High values mean strong suppression, low ones little suppression.

Chain of human recombinant dopamine D3 receptor (P35462 whole entry): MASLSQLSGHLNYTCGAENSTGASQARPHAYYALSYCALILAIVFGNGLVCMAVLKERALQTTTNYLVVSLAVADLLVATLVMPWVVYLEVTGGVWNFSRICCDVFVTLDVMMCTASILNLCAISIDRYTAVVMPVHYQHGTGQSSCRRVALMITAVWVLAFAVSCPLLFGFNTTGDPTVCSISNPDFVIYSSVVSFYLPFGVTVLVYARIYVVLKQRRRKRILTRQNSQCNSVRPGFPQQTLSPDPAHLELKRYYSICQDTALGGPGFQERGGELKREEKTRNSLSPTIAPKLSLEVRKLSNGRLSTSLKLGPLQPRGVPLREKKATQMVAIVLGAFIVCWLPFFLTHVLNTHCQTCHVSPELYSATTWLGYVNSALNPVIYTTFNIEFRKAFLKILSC
Chain of hERG channel (IKr) (Q12809 whole entry): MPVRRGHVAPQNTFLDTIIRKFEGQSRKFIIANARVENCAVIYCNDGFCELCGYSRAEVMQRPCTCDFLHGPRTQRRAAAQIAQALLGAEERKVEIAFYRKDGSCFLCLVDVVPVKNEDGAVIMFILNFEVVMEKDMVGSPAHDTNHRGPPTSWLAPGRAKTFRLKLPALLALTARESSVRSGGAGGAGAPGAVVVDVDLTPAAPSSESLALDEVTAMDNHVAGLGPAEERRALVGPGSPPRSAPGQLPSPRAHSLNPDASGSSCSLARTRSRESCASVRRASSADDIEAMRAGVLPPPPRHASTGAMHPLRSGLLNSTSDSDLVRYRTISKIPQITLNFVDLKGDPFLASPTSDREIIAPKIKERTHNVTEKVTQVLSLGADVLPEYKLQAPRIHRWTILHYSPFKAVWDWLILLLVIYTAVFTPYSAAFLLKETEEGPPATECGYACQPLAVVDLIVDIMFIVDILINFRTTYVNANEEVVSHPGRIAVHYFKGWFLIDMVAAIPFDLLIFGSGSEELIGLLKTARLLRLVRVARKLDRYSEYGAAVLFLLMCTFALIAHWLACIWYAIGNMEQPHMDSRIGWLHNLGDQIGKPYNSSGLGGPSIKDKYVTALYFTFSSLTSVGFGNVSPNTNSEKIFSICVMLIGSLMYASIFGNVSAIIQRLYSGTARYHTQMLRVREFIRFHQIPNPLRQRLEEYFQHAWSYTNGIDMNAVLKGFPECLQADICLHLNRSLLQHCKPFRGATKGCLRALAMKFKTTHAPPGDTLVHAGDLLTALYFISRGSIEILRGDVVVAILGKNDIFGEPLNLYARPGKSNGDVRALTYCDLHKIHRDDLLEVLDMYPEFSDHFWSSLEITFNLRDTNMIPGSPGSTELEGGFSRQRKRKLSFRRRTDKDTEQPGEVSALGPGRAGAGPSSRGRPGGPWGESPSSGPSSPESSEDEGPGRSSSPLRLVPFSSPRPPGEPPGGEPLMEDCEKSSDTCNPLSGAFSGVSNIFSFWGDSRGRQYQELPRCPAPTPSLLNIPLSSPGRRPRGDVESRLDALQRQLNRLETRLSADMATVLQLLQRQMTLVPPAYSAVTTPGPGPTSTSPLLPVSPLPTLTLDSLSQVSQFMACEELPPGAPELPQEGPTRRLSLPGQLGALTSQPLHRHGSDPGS

On to `CC(Oc1nc2c(s1)CCN(CC[C@H]1CC[C@H](NC(=O)c3cccc4nn(C)cc34)CC1)CC2)C(F)F` (single isomer, unassigned) [Example I-112], for which the Ki in data set [1] is > 2200 nM; in data set [2] it was 0.12 nM. The compound also yielded an inhibition at 3 µM at hERG channel (IKr) of 23.5%.
Turning to `CN1Cc2c(C(=O)N[C@H]3CC[C@H](CCN4CCc5sc(OC6CC(F)(F)C6)nc5C4)CC3)cccc2C1=O` [Example I-001], the Ki amounted to 290 nM in data set [1] and 0.2 nM in data set [2]. Also, on hERG channel (IKr), the inhibition at 3 µM amounted to 21.3%.
Turning to `Cn1cc2c(C(=O)N[C@H]3CC[C@H](CCN4CCc5ccc(OCC(C)(C)F)nc5CC4)CC3)cccc2n1` [Example I-003], the results for the Ki in data set [1] and in data set [2] were 780 nM and 0.15 nM, respectively. The compound also returned an inhibition at 3 µM on hERG channel (IKr) of 31%.
In the case of `Cn1cc(CC(=O)N[C@H]2CC[C@H](CCN3CCc4nc(OCC(C)(F)F)sc4CC3)CC2)cn1` [Example I-004], the Ki in data set [1] is 700 nM; in data set [2] it was 0.15 nM. Moreover, the inhibition at 3 µM on hERG channel (IKr) worked out at 21.6%.
In the same order, the values of `Cc1ncc(CC(=O)N[C@H]2CC[C@H](CCN3CCc4ccc(OC(C)C)nc4CC3)CC2)o1` [Example I-006] are > 1900 nM, 0.59 nM and 23%.
On to `Cc1nnc(CC(=O)N[C@H]2CC[C@H](CCN3CCc4ccc(OC(C)C)nc4CC3)CC2)s1` [Example I-007], for which the Ki was determined as 1500 nM in data set [1] and 0.68 nM in data set [2]. Also, at 3 µM the inhibition at hERG channel (IKr) was 33.7%.
In the case of `Cc1nc(CC(=O)N[C@H]2CC[C@H](CCN3CCc4nc(OCC(C)(F)F)sc4CC3)OC2)no1` [Example I-008], the results for the Ki in data set [1] and in data set [2] were > 1900 nM and 0.96 nM, respectively. In addition, on hERG channel (IKr), 3 µM produced 20.8% inhibition.
In the same order, the values of `Cn1cc2c(C(=O)N[C@H]3CC[C@H](CCN4CCc5nc(OCC(C)(F)F)sc5CC4)OC3)cccc2n1` [Example I-009] are 690 nM, 0.12 nM and 33.8%.
Consider `COc1cc(CC(=O)N[C@H]2CC[C@H](CCN3CCc4nc(OCC(C)(F)F)sc4CC3)OC2)on1` [Example I-010], for which the Ki in data set [1] turned out to be 930 nM; in data set [2], 0.13 nM. For the same compound, the inhibition at 3 µM against hERG channel (IKr) came out at 32%.
For `Cc1nnc(CC(=O)N[C@H]2CC[C@H](CCN3CCc4sc(C5CC(F)(F)C5)nc4C3)OC2)o1` [Example I-011], the Ki in data set [1] came out at 950 nM; in data set [2] it was 0.32 nM. Besides, at 3 µM the inhibition against hERG channel (IKr) was 10.6%.
For `CN1Cc2c(C(=O)N[C@H]3CC[C@H](CCN4CCc5sc(C6CC(F)(F)C6)nc5C4)CC3)cccc2C1=O` [Example I-012], the figures for the Ki in data set [1] and in data set [2] were 260 nM and 0.15 nM, respectively. Besides, at 3 µM the inhibition against hERG channel (IKr) was 19%.
Take `Cc1nc(CC(=O)N[C@H]2CC[C@](F)(CCN3CCc4nc(OCC(C)(F)F)sc4CC3)CC2)no1` [Example I-013]: the Ki is 920 nM in data set [1] and 0.53 nM in data set [2]. At hERG channel (IKr), the inhibition at 3 µM was 21.4%.
For `Cc1nnc(CC(=O)N[C@H]2CC[C@](F)(CCN3CCc4nc(OCC(C)(F)F)sc4CC3)CC2)o1` [Example I-014], in that order: 980 nM, 0.48 nM and 3.83%.
Regarding `Cc1cnc(CC(=O)N[C@H]2CC[C@](F)(CCN3CCc4nc(OCC(C)(F)F)sc4CC3)CC2)o1` [Example I-015], the values for the Ki in data set [1] and in data set [2] were 1000 nM and 0.26 nM, respectively. Also, 3 µM produced 24.3% inhibition against hERG channel (IKr).
As for `Cn1cc2c(C(=O)NN3CCC(CCN4CCc5ccc(OCC(F)(F)F)nc5CC4)CC3)cccc2n1` [Example I-016], the Ki in data set [1] is 850 nM; in data set [2], 0.039 nM. At hERG channel (IKr), this compound came in with an inhibition at 3 µM of 19.1%.
In the same order, the values of `Cn1cc(CC(=O)N[C@H]2CC[C@](F)(CCN3CCc4ccc(OCC(C)(F)F)nc4CC3)CC2)cn1` [Example I-017] are 240 nM, 0.063 nM and 21.6%.
In the same order, the values of `Cc1nnc(CC(=O)N[C@H]2CC[C@](F)(CCN3CCc4ccc(OCC(C)(F)F)nc4CC3)CC2)s1` [Example I-018] are 190 nM, 0.035 nM and 33.8%.
For `Cc1ncccc1C(=O)N[C@H]1CC[C@H](CCN2CCc3nc(OC4CC(F)(F)C4)sc3CC2)CC1` [Example I-019], the results for the Ki in data set [1] and in data set [2] were > 1800 nM and 0.37 nM, respectively. For the same compound, at hERG channel (IKr), at 3 µM the inhibition was 8.86%.
For `Cc1nnc(CC(=O)N[C@H]2CC[C@H](CCN3CCc4nc(OC5CC(F)(F)C5)sc4CC3)CC2)o1` [Example I-020], the values for the Ki in data set [1] and in data set [2] were > 1800 nM and 0.27 nM, respectively. The inhibition at 3 µM against hERG channel (IKr) was 23.1%.
`Cn1cc(CC(=O)N[C@H]2CC[C@H](CCN3CCc4nc(OC5CC(F)(F)C5)sc4CC3)CC2)cn1` [Example I-021]: the Ki in data set [1] worked out at 1900 nM; in data set [2] it was 0.15 nM. For the same compound, the inhibition at 3 µM against hERG channel (IKr) amounted to 24.3%.
In the same order, the values of `Cc1cc(OCC(=O)N[C@H]2CC[C@H](CCN3CCc4nc(OC5CC(F)(F)C5)sc4CC3)CC2)no1` [Example I-022] are > 2300 nM, 0.1 nM and 32.6%.
`Cn1ncc(CC(=O)N[C@H]2CC[C@H](CCN3CCc4nc(OC5CC(F)(F)C5)sc4CC3)CC2)n1` [Example I-023]: the figures for the Ki in data set [1] and in data set [2] were > 2200 nM and 0.11 nM, respectively. The same compound yielded an inhibition at 3 µM against hERG channel (IKr) of 16.5%.
On to `Cc1nc(CC(=O)N[C@H]2CC[C@](F)(CCN3CCc4ccc(OCC(F)F)nc4CC3)CC2)no1` [Example I-024], for which the figures for the Ki in data set [1] and in data set [2] were > 2200 nM and 0.2 nM, respectively. Besides, the inhibition at 3 µM at hERG channel (IKr) worked out at 18.7%.
For `Cc1nnc(CC(=O)N[C@H]2CC[C@](F)(CCN3CCc4ccc(OCC(F)F)nc4CC3)CC2)o1` [Example I-025], in that order: 820 nM, 0.46 nM and 14.9%.
For the compound `Cc1ncc(CC(=O)N[C@H]2CC[C@](F)(CCN3CCc4ccc(OCC(F)F)nc4CC3)CC2)o1` [Example I-026], the Ki in data set [1] came out at 1100 nM; in data set [2], 0.095 nM. This compound also came in with an inhibition at 3 µM at hERG channel (IKr) of 20.1%.
For `Cn1cc(CC(=O)N[C@H]2CC[C@](F)(CCN3CCc4ccc(OCC(F)F)nc4CC3)CC2)cn1` [Example I-027], in that order: 1000 nM, 0.23 nM and 14.3%.
Turning to `Cn1cc2c(C(=O)NN3CCC(F)(CCN4CCc5sc(OCC(F)(F)F)nc5C4)CC3)cccc2n1` [Example I-028], the Ki worked out at 640 nM in data set [1] and 0.41 nM in data set [2]. At hERG channel (IKr), this compound gave an inhibition at 3 µM of 9.09%.
In the case of `Cn1c(C(=O)N[C@H]2CC[C@](F)(CCN3CCc4ccc(OCC(F)F)nc4CC3)CC2)cccc1=O` [Example I-029], the Ki in data set [1] was determined as 610 nM; in data set [2] it was 0.36 nM. At hERG channel (IKr), this compound registered an inhibition at 3 µM of 8.37%.
As for `Cc1ncc(OCC(=O)N[C@H]2CC[C@](F)(CCN3CCc4ccc(OCC(F)F)nc4CC3)CC2)cn1` [Example I-030], the results for the Ki in data set [1] and in data set [2] were 610 nM and 0.3 nM, respectively. Moreover, the inhibition at 3 µM against hERG channel (IKr) turned out to be 26.1%.
Take `Cn1cc(CC(=O)N[C@H]2CC[C@H](CCN3CCc4ccc(OC5CCC5)nc4CC3)CC2)cn1` [Example I-032]: the Ki was > 2200 nM in data set [1] and 0.48 nM in data set [2]. The inhibition at 3 µM against hERG channel (IKr) stood at 31.9%.
On to `Cc1ncc(CC(=O)N[C@H]2CC[C@H](CCN3CCc4ccc(OC5CCC5)nc4CC3)CC2)o1` [Example I-033], for which the Ki in data set [1] was > 2200 nM; in data set [2] it was 0.78 nM. For the same compound, the inhibition at 3 µM on hERG channel (IKr) worked out at 12.2%.
As for `Cc1ncccc1C(=O)N[C@H]1CC[C@H](CCN2CCc3nc(OCC(C)(F)F)sc3CC2)CC1` [Example I-034], the values for the Ki in data set [1] and in data set [2] were 560 nM and 0.36 nM, respectively. This compound also displayed an inhibition at 3 µM against hERG channel (IKr) of 34.3%.
On to `Cn1cc2c(C(=O)N[C@H]3CC[C@H](CCN4CCc5sc([C@H]6C[C@@H](F)C6)nc5C4)CC3)cccc2n1` [Example I-035], for which the figures for the Ki in data set [1] and in data set [2] were 210 nM and 0.18 nM, respectively. This compound gave an inhibition at 3 µM at hERG channel (IKr) of 16%.
Take `Cc1cnc(CC(=O)N[C@H]2CC[C@H](CCN3CCc4nc(OCC(C)(F)F)sc4CC3)CC2)o1` [Example I-036]: the Ki in data set [1] amounted to 910 nM; in data set [2], 0.54 nM. On hERG channel (IKr), this compound displayed an inhibition at 3 µM of 29.8%.
For the compound `Cc1ncc(/C=C/C(=O)N[C@H]2CC[C@H](CCN3CCc4nc(OCC(C)(F)F)sc4CC3)CC2)cn1` [Example I-037], the Ki in data set [1] came out at 240 nM; in data set [2], 0.097 nM. The same compound came in with an inhibition at 3 µM at hERG channel (IKr) of 28%.
